From paper PMC5571522, “Cryptotanshinone inhibition of mammalian target of rapamycin pathway is dependent on oestrogen receptor alpha in breast cancer” (Journal of Cellular and Molecular Medicine, 2017) come the findings set out here.

For this experiment, the target named is T1, oestrogen receptor alpha (ERα) (Homo sapiens, UniProt P03372).
T1 construct: gene ESR1
In words: HitHunter Estrogen Assay Kit competitive binding (enzyme fragment complementation); supported by ERE-luciferase inhibition in MCF-7 cells.

Structures are written as SMILES.

T1 sequence (P03372 whole entry): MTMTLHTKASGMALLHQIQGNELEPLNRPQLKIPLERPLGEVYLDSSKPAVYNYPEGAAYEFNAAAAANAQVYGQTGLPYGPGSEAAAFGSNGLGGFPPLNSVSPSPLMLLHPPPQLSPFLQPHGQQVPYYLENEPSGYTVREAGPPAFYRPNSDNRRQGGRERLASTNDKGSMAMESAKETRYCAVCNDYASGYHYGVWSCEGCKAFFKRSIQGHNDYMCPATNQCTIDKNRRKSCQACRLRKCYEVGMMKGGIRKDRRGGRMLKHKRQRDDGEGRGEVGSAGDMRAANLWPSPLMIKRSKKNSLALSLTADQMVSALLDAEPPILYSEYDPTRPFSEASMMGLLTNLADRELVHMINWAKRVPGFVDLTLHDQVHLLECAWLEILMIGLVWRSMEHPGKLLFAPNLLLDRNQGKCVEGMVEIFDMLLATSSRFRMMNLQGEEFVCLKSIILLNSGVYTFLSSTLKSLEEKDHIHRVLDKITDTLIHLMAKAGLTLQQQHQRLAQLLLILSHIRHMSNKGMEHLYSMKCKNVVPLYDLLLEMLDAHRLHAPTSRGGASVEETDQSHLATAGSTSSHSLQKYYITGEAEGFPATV

`C[C@H]1COC2=C1C(=O)C(=O)c1c2ccc2c1CCCC2(C)C` [CPT, Cryptotanshinone]: the EC50 (in general, the midpoint of the concentration-response curve) was about 9.68 nM.
